Results: ChEMBL document CHEMBL1134697, “Synthesis and antiproliferative activity of epoxy and bromo compounds derived from estrone” (Bioorg Med Chem Lett, 2001)
pIC50: −log10 of the molar value.

How the values were obtained:
[1] = Antiproliferative activity was determined after 48 hr exposure to human melanoma Fem-X cell; format: functional, cell-based
K562 [2] = assay: Antiproliferative activity was determined after 48 hr exposure to human myelogenous leukemia K562 cells; format: functional, cell-based; conditions: K562, 48 h
HeLa = assay: Antiproliferative activity was determined after 48 hr exposure to human cervix carcinoma HeLa cells; format: functional, cell-based
K562 [3] = assay: Antiproliferative activity was determined after 72 hr exposure to human myelogenous leukemia K562 cells; format: functional, cell-based; conditions: K562, 72 h
[4] = Antiproliferative activity was determined after 72 hr exposure to normal human peripheral blood mononuclear cells (PBMC) in the absence of 5 ug/mL Phytohemagglutinine; format: functional
[5] = Antiproliferative activity was determined after 72 hr exposure to normal human peripheral blood mononuclear cells (PBMC) in the presence of 5 ug/mL Phytohemagglutinine; format: functional
[6] = Antiproliferative activity was determined after 72 hr exposure to human melanoma Fem-x cells; format: functional, cell-based
P388 = assay: Concentration required for antiproliferative activity against P388 cell survival by 50%; format: functional, cell-based; conditions: Mus musculus

| Structure (SMILES) | pIC50 [1] | pIC50 (K562 [2]) | pIC50 (HeLa) | pIC50 (K562 [3]) | pIC50 [4] | pIC50 [5] | pIC50 [6] | pIC50 (P388) |
| --- | --- | --- | --- | --- | --- | --- | --- | --- |
| C[C@]12CCC3C(CC[C@]45O[C@H]4[C@@H](O)C=C[C@]35O)C1CCC2O (some centres undefined) | < 3.57 | < 3.57 | < 3.57 |  |  |  |  |  |
| C[C@]12CCC3C(CCC4=CC(=O)C=C[C@@]43O)C1CCC2=O (some centres undefined) | < 4.00 | < 4.00 | < 4.00 |  |  |  |  |  |
| C[C@]12CCC3[C@@H](CCC4=C(Br)C(=O)C=C[C@@]43O)[C@@H]1CCC2=O (some centres undefined) | 4.84 | 4.86 | 5.21 | 5.23 | 4.91 | 5.28 | 5.34 |  |
| C[C@]12CCC3[C@@H](CC[C@]45O[C@H]4C(=O)C(Br)=C[C@]35O)[C@@H]1CCC2=O (some centres undefined) | 5.22 | 5.92 | 5.60 | 6.15 | 5.54 | 5.89 | 6.00 |  |
| C[C@]12CC[C@H]3[C@@H](CC[C@]45O[C@H]4C(=O)C=C[C@]35O)[C@@H]1CCC2=O | 5.15 | 5.21 | 5.24 |  |  |  |  |  |
| O=C1C(Br)=C[C@H](O)[C@H]2O[C@@H]12 |  |  |  |  |  |  |  | 7.31 |
